Test results as given in publication PMC3844542 (Anesthesia and analgesia, 2013).

Tests used:
[1] = biological target: T1, LFA-1 αL I domain (wild-type, low-affinity conformer) (Homo sapiens, UniProt P20701); assay: 1-aminoanthracene fluorescence displacement assay; format: binding
T1 sequence (P20701 153-332): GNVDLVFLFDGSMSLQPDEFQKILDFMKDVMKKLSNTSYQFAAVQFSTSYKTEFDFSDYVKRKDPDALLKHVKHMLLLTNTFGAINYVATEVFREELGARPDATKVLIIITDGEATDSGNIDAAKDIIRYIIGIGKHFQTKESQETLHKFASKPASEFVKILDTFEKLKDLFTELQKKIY

[2] = biological target: leukocyte function–associated antigen-1 (LFA-1) (Homo sapiens, UniProt P20701); assay: ELISA-type ICAM-1–LFA-1 binding assay with purified LFA-1; format: biochemical
Sequence of leukocyte function–associated antigen-1 (LFA-1) (P20701 26-1090 limits assumed): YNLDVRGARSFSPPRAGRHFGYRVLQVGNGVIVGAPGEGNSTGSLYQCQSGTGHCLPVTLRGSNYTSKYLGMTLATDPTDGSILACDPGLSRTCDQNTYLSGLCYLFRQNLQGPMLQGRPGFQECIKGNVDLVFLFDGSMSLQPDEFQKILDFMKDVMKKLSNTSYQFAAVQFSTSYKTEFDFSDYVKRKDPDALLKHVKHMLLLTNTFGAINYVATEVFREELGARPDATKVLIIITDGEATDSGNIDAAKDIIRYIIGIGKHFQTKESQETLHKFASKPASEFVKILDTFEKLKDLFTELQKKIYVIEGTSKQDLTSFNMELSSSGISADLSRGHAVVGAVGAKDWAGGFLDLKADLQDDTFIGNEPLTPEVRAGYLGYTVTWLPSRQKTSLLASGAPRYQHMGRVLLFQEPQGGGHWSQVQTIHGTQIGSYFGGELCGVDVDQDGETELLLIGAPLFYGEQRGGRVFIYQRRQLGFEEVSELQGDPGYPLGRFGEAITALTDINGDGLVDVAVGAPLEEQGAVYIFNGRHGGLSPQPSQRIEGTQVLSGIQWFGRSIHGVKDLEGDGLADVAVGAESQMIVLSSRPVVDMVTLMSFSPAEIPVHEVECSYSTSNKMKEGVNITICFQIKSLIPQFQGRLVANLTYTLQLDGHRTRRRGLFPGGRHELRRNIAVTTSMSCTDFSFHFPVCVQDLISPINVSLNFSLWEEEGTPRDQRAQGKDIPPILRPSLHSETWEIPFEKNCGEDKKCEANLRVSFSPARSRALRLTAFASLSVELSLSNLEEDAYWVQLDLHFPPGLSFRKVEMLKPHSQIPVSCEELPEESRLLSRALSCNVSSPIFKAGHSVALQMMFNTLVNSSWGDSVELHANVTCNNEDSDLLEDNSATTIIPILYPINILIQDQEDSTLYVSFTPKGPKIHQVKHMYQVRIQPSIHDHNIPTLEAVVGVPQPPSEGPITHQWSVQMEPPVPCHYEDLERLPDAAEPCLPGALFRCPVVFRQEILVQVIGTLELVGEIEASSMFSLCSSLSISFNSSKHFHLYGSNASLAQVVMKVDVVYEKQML
Sequence of leukocyte function–associated antigen-1 (LFA-1) (P05107 23-769 partner): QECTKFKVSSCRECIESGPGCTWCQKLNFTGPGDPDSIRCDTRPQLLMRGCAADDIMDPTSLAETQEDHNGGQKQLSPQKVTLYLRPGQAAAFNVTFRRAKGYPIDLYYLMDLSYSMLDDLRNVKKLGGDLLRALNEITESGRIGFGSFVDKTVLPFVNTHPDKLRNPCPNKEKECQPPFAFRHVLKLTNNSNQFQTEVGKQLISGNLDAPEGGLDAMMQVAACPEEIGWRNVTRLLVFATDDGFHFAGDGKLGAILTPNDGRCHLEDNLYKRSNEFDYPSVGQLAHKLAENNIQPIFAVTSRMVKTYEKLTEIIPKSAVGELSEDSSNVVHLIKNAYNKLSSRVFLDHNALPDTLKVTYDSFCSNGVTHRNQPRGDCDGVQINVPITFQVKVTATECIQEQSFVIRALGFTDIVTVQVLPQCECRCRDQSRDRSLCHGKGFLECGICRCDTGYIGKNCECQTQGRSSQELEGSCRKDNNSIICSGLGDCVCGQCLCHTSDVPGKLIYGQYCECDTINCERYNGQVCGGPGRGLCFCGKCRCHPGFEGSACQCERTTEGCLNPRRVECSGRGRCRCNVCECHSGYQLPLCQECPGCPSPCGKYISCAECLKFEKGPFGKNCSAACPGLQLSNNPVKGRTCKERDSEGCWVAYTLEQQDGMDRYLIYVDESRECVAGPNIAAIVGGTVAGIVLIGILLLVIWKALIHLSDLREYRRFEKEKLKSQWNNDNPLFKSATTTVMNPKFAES

SMILES | IC50 [1] [µM] | ELISA-type ICAM-1-LFA-1 binding assay with purified LFA-1 [2]
CC(C)c1cccc(C(C)C)c1O [propofol] | 90.3 | –
CC(C)(C)c1cccc(C(C)(C)C)c1O [DTBP, 2,6-di-tert-butylphenol] | – | Both propofol and DTBP inhibited ICAM-1–LFA-1 binding.
